Measured values as given in ChEMBL document CHEMBL1132784, “Dibasic inhibitors of human mast cell tryptase. Part 2: structure-activity relationships and requirements for potent activity” (Bioorg Med Chem Lett, 2000).

Legend:
Serine protease 1 = Serine protease 1 (Homo sapiens, UniProt P07477); assay: Compound was evaluated for its inhibitory potency against trypsin
Tryptase = Tryptase (Homo sapiens, UniProt Q9BZJ3+Q15661+Q9NRR2); assay: Evaluated for its inhibitory potency against tryptase; assay type: protein assay
Plasminogen = Plasminogen (Homo sapiens, UniProt P00747); assay: Compound was evaluated for its inhibitory potency against plasmin
Sequence of Plasminogen (P00747 97-580 limits assumed): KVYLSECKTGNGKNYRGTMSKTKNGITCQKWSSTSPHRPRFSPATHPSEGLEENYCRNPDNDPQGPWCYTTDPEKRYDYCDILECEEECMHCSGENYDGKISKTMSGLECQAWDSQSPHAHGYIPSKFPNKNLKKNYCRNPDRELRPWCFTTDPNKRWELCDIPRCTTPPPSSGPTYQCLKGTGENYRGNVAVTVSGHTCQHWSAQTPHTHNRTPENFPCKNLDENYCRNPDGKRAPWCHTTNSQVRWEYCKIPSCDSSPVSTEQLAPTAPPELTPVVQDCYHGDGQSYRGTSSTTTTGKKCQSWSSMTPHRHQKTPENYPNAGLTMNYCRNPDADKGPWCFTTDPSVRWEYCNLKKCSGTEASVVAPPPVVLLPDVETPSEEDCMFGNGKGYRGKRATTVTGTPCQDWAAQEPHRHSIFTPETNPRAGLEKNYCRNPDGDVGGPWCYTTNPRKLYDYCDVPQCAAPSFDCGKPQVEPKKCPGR
Sequence of Plasminogen (P00747 581-810 limits assumed): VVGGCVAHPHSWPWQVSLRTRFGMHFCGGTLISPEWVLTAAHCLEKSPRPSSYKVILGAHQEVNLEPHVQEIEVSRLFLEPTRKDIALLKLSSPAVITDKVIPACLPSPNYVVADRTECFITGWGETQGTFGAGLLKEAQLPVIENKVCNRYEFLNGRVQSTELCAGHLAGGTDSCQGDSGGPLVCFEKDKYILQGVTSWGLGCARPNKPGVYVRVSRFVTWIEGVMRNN

Prothrombin = Prothrombin (Homo sapiens, UniProt P00734); assay: Compound was evaluated for its inhibitory potency against thrombin

Sequence of Serine protease 1 (P07477 whole entry): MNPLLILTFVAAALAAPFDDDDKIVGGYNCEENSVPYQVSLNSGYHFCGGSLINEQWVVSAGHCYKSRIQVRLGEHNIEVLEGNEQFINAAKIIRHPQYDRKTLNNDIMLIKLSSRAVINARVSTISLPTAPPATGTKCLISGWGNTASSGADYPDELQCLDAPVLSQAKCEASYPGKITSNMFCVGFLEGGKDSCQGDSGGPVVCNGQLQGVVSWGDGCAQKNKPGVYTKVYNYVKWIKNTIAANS

Ki (Serine protease 1) | Ki (Tryptase) | Ki (Plasminogen) | Ki (Prothrombin) | Structure (SMILES)
126 µM | 0.82 µM | > 1000 µM | > 1000 µM | N=C(N)Nc1ccc(CNC(=O)N2CCN(C(=O)O[C@H]3CCC[C@@H](OC(=O)N4CCN(C(=O)NCc5ccc(N)cc5)CC4)CCC3)CC2)cc1
138 µM | 0.044 µM | > 1000 µM | > 1000 µM | N=C(N)Nc1ccc(CNC(=O)N2CCN(C(=O)O[C@H]3CCC[C@@H](OC(=O)N4CCN(C(=O)NCCCN)CC4)CCC3)CC2)cc1
– | 101 µM | – | – | O=C(NCc1ccccc1)N1CCN(C(=O)O[C@H]2CCC[C@@H](OC(=O)N3CCN(C(=O)NCc4ccccc4)CC3)CCC2)CC1
17 µM | 0.01 µM | 576 µM | 363 µM | N=C(N)Nc1ccc(CNC(=O)N2CCN(C(=O)OCC34CC5CC(C3)CC(COC(=O)N3CCN(C(=O)NCc6ccc(NC(=N)N)cc6)CC3)(C5)C4)CC2)cc1
445 µM | 0.005 µM | > 1000 µM | 130 µM | N=C(N)N1CCC(CC(=O)N2CCN(C(=O)O[C@H]3CCC[C@@H](OC(=O)N4CCN(C(=O)CC5CCN(C(=N)N)CC5)CC4)CCC3)CC2)CC1
66 µM | 0.44 µM | 60 µM | 36 µM | N=C(N)c1ccc(CCNC(=O)N2CCN(C(=O)O[C@H]3CCC[C@@H](OC(=O)N4CCN(C(=O)NCCc5ccc(C(=N)N)cc5)CC4)CCC3)CC2)cc1
165 µM | 41 µM | > 1000 µM | > 1000 µM | N=C(N)Nc1ccc(CNC(=O)N2CCN(C(=O)O[C@H]3CCC[C@@H](OC(=O)N4CCN(C(=O)CCc5cnc(N)nc5)CC4)CCC3)CC2)cc1
754 µM | 0.011 µM | > 1000 µM | > 1000 µM | NCCCCCNC(=O)N1CCN(C(=O)O[C@H]2CCC[C@@H](OC(=O)N3CCN(C(=O)NCCCCCN)CC3)CCC2)CC1
15 µM | – | 700 µM | 138 µM | N=C(N)Nc1ccc(CNC(=O)N2CCN(C(=O)O[C@@H]3CO[C@H]4[C@@H]3OC[C@H]4OC(=O)N3CCN(C(=O)NCc4ccc(NC(=N)N)cc4)CC3)CC2)cc1
15 µM | 0.008 µM | 700 µM | 138 µM | N=C(N)Nc1ccc(CNC(=O)N2CCN(C(=O)OC[C@H]3C4C=CC(CC4)[C@@H]3COC(=O)N3CCN(C(=O)NCc4ccc(NC(=N)N)cc4)CC3)CC2)cc1
> 1000 µM | 0.21 µM | > 1000 µM | 537 µM | N=C(N)Nc1ccc(CCC(=O)N2CCN(C(=O)O[C@H]3CCC[C@@H](OC(=O)N4CCN(C(=O)CCc5ccc(NC(=N)N)cc5)CC4)CCC3)CC2)cc1
126 µM | 0.68 µM | > 1000 µM | > 1000 µM | CN(CCC1CCNCC1)C(=O)N1CCN(C(=O)O[C@H]2CCC[C@@H](OC(=O)N3CCN(C(=O)NCc4ccc(NC(=N)N)cc4)CC3)CCC2)CC1
131 µM | 0.9 µM | > 1000 µM | > 1000 µM | N=C(N)Nc1ccc(CNC(=O)N2CCN(C(=O)O[C@H]3CCC[C@@H](OC(=O)N4CCN(C(=O)NCCc5ccncc5)CC4)CCC3)CC2)cc1
80 µM | 0.24 µM | > 1000 µM | > 1000 µM | N=C(N)Nc1ccc(CNC(=O)N2CCN(C(=O)O[C@H]3CCC[C@@H](OC(=O)N4CCN(C(=O)NCCCC5CCNCC5)CC4)CCC3)CC2)cc1
219 µM | 0.0001 µM | > 1000 µM | > 1000 µM | NCc1ccc(CNC(=O)N2CCN(C(=O)O[C@H]3CCC[C@@H](OC(=O)N4CCN(C(=O)NCc5ccc(CN)cc5)CC4)CCC3)CC2)cc1
20 µM | 0.0007 µM | > 1000 µM | > 1000 µM | N=C(N)Nc1ccc(CNC(=O)N2CCN(C(=O)CCCCCCCCC(=O)N3CCN(C(=O)NCc4ccc(NC(=N)N)cc4)CC3)CC2)cc1
171 µM | 0.078 µM | > 1000 µM | 274 µM | N=C(N)Nc1ccc(CNC(=O)N2CCN(C(=O)O[C@H]3CCC[C@@H](OC(=O)N4CCN(C(=O)NC[C@H]5CC[C@@H](N)CC5)CC4)CCC3)CC2)cc1
141 µM | 0.001 µM | > 1000 µM | > 1000 µM | N=C(N)Nc1ccc(CNC(=O)N2CCN(C(=O)O[C@H]3CCC[C@@H](OC(=O)N4CCN(C(=O)NC[C@H]5CC[C@H](N)CC5)CC4)CCC3)CC2)cc1
> 1000 µM | 1 µM | 570 µM | > 1000 µM | NCCc1ccc(CCNC(=O)N2CCN(C(=O)O[C@H]3CCC[C@@H](OC(=O)N4CCN(C(=O)NCCc5ccc(CCN)cc5)CC4)CCC3)CC2)cc1
> 1000 µM | 0.016 µM | > 1000 µM | > 1000 µM | NC[C@H]1CC[C@H](CNC(=O)N2CCN(C(=O)O[C@H]3CCC[C@@H](OC(=O)N4CCN(C(=O)NC[C@H]5CC[C@H](CN)CC5)CC4)CCC3)CC2)CC1
121 µM | 0.003 µM | > 1000 µM | > 1000 µM | N=C(N)Nc1ccc(CNC(=O)N2CCN(C(=O)O[C@H]3CCC[C@@H](OC(=O)N4CCN(C(=O)NCCC5CCNCC5)CC4)CCC3)CC2)cc1

Ki (Serine protease 1) | Ki (Tryptase) | Ki (Plasminogen) | Ki (Prothrombin) | Structure (SMILES)
110 µM | 3 µM | > 1000 µM | 269 µM | CN1CCC(CCNC(=O)N2CCN(C(=O)O[C@H]3CCC[C@@H](OC(=O)N4CCN(C(=O)NCc5ccc(NC(=N)N)cc5)CC4)CCC3)CC2)CC1
20 µM | 0.0004 µM | 3 µM | 123 µM | N=C(N)Nc1ccc(CNC(=O)N2CCN(C(=O)OCC34CCC(COC(=O)N5CCN(C(=O)NCc6ccc(NC(=N)N)cc6)CC5)(CC3)CC4)CC2)cc1
262 µM | 0.004 µM | > 1000 µM | > 1000 µM | N=C(N)Nc1ccc(CNC(=O)N2CCN(C(=O)O[C@H]3CCC[C@@H](OC(=O)N4CCN(C(=O)CCCC5CCNCC5)CC4)CCC3)CC2)cc1
156 µM | 0.18 µM | > 1000 µM | > 1000 µM | N=C(N)Nc1ccc(CNC(=O)N2CCN(C(=O)O[C@H]3CCC[C@@H](OC(=O)N4CCN(C(=O)CCc5ccc(N)nc5)CC4)CCC3)CC2)cc1
82 µM | 0.0005 µM | > 1000 µM | 255 µM | N=C(N)Nc1ccc(CC(=O)N2CCN(C(=O)O[C@H]3CCC[C@@H](OC(=O)N4CCN(C(=O)Cc5ccc(NC(=N)N)cc5)CC4)CCC3)CC2)cc1
4 µM | 0.028 µM | – | > 1000 µM | N=C(N)Nc1ccc(CNC(=O)N2CCN(C(=O)O[C@H]3C[C@H]4C[C@@H](OC(=O)N5CCN(C(=O)NCc6ccc(NC(=N)N)cc6)CC5)C[C@H]4C3)CC2)cc1
54 µM | 0.044 µM | 316 µM | > 1000 µM | N=C(N)Nc1ccc(CNC(=O)N2CCN(C(=O)CCCCC(=O)N3CCN(C(=O)NCc4ccc(NC(=N)N)cc4)CC3)CC2)cc1
> 1000 µM | > 1000 µM | > 1000 µM | > 1000 µM | CC(=N)N1CCC(CNC(=O)N2CCN(C(=O)O[C@H]3CCC[C@@H](OC(=O)N4CCN(C(=O)NCC5CCN(C(C)=N)CC5)CC4)CCC3)CC2)CC1
111 µM | 0.097 µM | > 1000 µM | > 1000 µM | N=C(N)Nc1ccc(CNC(=O)N2CCN(C(=O)O[C@H]3CCC[C@@H](OC(=O)N4CCN(C(=O)CCNc5ccncc5)CC4)CCC3)CC2)cc1
> 1000 µM | 1 µM | > 1000 µM | > 1000 µM | NCCCCCCNC(=O)N1CCN(C(=O)O[C@H]2CCC[C@@H](OC(=O)N3CCN(C(=O)NCCCCCCN)CC3)CCC2)CC1
52 µM | 0.004 µM | > 1000 µM | > 1000 µM | N=C(N)Nc1ccc(CNC(=O)N2CCN(C(=O)CCCCCC(=O)N3CCN(C(=O)NCc4ccc(NC(=N)N)cc4)CC3)CC2)cc1
> 1000 µM | 0.115 µM | > 1000 µM | > 1000 µM | O=C(NCCC1CCNCC1)N1CCN(C(=O)O[C@H]2CCC[C@@H](OC(=O)N3CCN(C(=O)NCCC4CCNCC4)CC3)CCC2)CC1
144 µM | 1 µM | > 1000 µM | > 1000 µM | N=C(N)Nc1ccc(CNC(=O)N2CCN(C(=O)O[C@H]3CCC[C@@H](OC(=O)N4CCN(C(=O)CCCCn5ccnc5)CC4)CCC3)CC2)cc1
25 µM | 0.009 µM | 134 µM | 60 µM | N=C(N)c1ccc(CNC(=O)N2CCN(C(=O)O[C@H]3CCC[C@@H](OC(=O)N4CCN(C(=O)NCc5ccc(C(=N)N)cc5)CC4)CCC3)CC2)cc1
11 µM | 0.0002 µM | 155 µM | 34 µM | N=C(N)c1ccc(CC(=O)N2CCN(C(=O)O[C@H]3CCC[C@@H](OC(=O)N4CCN(C(=O)Cc5ccc(C(=N)N)cc5)CC4)CCC3)CC2)cc1
34 µM | 0.0001 µM | > 1000 µM | > 1000 µM | N=C(N)Nc1ccc(CNC(=O)N2CCN(C(=O)CCCCCCC(=O)N3CCN(C(=O)NCc4ccc(NC(=N)N)cc4)CC3)CC2)cc1
> 1000 µM | 255 µM | > 1000 µM | > 1000 µM | CC(=N)N1CCC(CCNC(=O)N2CCN(C(=O)O[C@H]3CCC[C@@H](OC(=O)N4CCN(C(=O)NCCC5CCN(C(C)=N)CC5)CC4)CCC3)CC2)CC1
> 1000 µM | 46 µM | > 1000 µM | > 1000 µM | O=C(CCCCCn1ccnc1)N1CCN(C(=O)O[C@H]2CCC[C@@H](OC(=O)N3CCN(C(=O)CCCCCn4ccnc4)CC3)CCC2)CC1
> 1000 µM | 0.002 µM | > 1000 µM | > 1000 µM | NCCc1ccc(CC(=O)N2CCN(C(=O)O[C@H]3CCC[C@@H](OC(=O)N4CCN(C(=O)Cc5ccc(CCN)cc5)CC4)CCC3)CC2)cc1
28 µM | 0.003 µM | > 1000 µM | – | N=C(N)Nc1ccc(CNC(=O)N2CCN(C(=O)OC[C@H]3CC[C@H](COC(=O)N4CCN(C(=O)NCc5ccc(NC(=N)N)cc5)CC4)CC3)CC2)cc1
– | 15 µM | – | – | N=C(N)Nc1ccc(CNC(=O)N2CCN(C(=O)O[C@H]3CCC[C@@H](OC(=O)N4CCN(C(=O)NCc5ccccc5)CC4)CCC3)CC2)cc1
